Data from patent US20230203064A1, “TRICYCLIC COMPOUNDS AS INHIBITORS OF NLRP3” (JANSSEN PHARMACEUTICA NV, priority 2020, published 2023).

Assays:
[1] = system: TNF; experiment: PBMC assay: TNF cytokine level after LPS stimulation; type: cell-based; settings: human PBMCs, 30 min pre-incubation, 100 ng/ml LPS for 6 hrs, supernatant, MSD technology
Experimental: (§1) Peripheral venous blood was collected from healthy individuals and human peripheral blood mononuclear cells (PBMCs) were isolated from blood by Ficoll-Histopaque (Sigma-Aldrich, A0561) density gradient centrifugation. After isolation, PBMCs were stored in liquid nitrogen for later use. Upon thawing, PBMC cell viability was determined in growth medium (RPMI media supplemented with 10% fetal bovine serum, 1% Pen-Strep and 1% L-glutamine). Compounds were spotted in a 1:3 serial dilution in DMSO and diluted to the final concentration in 30 μl medium in 96 well plates (Falcon, 353072). PBMCs were added at a density of 7.5×10^4 cells per well and incubated for 30 min in a 5% CO2 incubator at 37° C. LPS stimulation was performed by addition of 100 ng/ml LPS (final concentration, Invivogen, tirl-smips) for 6 hrs followed by collection of cellular supernatant and the analysis of IL-1β (μM) and TNF cytokines levels (μM) via MSD technology according to manufacturers' guidelines (MSD, K151A0H).
The IC50 values (for IL-1β) and EC50 values (TNF) were obtained on compounds of the invention/examples, and are depicted in the following table: […]

[2] = system: IL-1β; experiment: PBMC assay: IL-1β release after LPS stimulation (NLRP3 inflammasome activity); type: cell-based; settings: human PBMCs, 30 min pre-incubation, 100 ng/ml LPS for 6 hrs, supernatant, MSD technology
Experimental: as §1

EC50 [1] [nM]	melting point [°C]	IC50 [2] [nM]	SMILES
> 10000	–	660	COCCN(C)c1nn(CC(=O)Nc2ccncn2)c(=O)c2cc3sccc3n12 [Final Cpd 3]
> 10000	–	320	CCCN(C)c1nn(CC(=O)Nc2ccncn2)c(=O)c2cc3sccc3n12 [Final Cpd 4]
> 10000	–	210	CNc1nn(CC(=O)Nc2ccncn2)c(=O)c2cc3sccc3n12 [Final Cpd 5]
> 10000	–	250	CCN(C)c1nn(CC(=O)Nc2ccncn2)c(=O)c2cc3sccc3n12 [Final Cpd 6]
> 10000	–	< 120	CN(C)c1nn(CC(=O)Nc2ccncn2)c(=O)c2cc3sccc3n12 [Final Cpd 7]

Further lines, the compound ahead of its results:

SMILES	EC50 [1] [nM]	melting point [°C]	IC50 [2] [nM]
CCN(C)c1nn(CC(=O)Nc2ccncn2)c(=O)c2cc3scnc3n12 [Final Cpd 1, 2-[12-[ethyl(methyl)amino]-9-oxo-5-thia-1,3,10,11-tetrazatricyclo-[6.4.0.02,6]dodeca-2(6),3,7,11-tetraen-10-yl]-N-pyrimidin-4-yl-acetamide]	8560	214.8	360
CN(C)c1nn(CC(=O)Nc2ccncn2)c(=O)c2cc3scnc3n12 [Final Cpd 2]	> 10000	248.3	< 120
CCCN(C)c1nn(CC(=O)Nc2ccncn2)c(=O)c2cc3scnc3n12 [Final Cpd 8]	> 10000	196.7	280
CN(C)c1nn(CC(=O)N[C@H]2C[C@@](C)(O)C2)c(=O)c2cc3scnc3n12 [Final Cpd 9]	> 10000	221.7	< 120
CNc1nn(CC(=O)Nc2ccncn2)c(=O)c2cc3scnc3n12 [Final Cpd 10]	> 10000	263.5	270
CN(C)c1nn(CC(=O)N[C@H]2C[C@@](C)(O)C2)c(=O)c2cc3sccc3n12 [Final Cpd 11, 2-(5-(dimethylamino)-8-oxothieno[2′,3′:4,5]pyrrolo[1,2-d][1,2,4]triazin-7(8H)-yl)-N-((1s,3s)-3-hydroxy-3-methylcyclobutyl)acetamide]	> 10000	–	–
CN(C)c1nn(CC(=O)Nc2ccc3nncn3n2)c(=O)c2cc3sc(Cl)cc3n12 [Final Cpd 12, N-([1,2,4]triazolo[4,3-b]pyridazin-6-yl)-2-(2-chloro-5-(dimethylamino)-8-oxothieno[2′,3′:4,5]pyrrolo[1,2-d][1,2,4]triazin-7(8H)-yl)acetamide]	6970	–	20
